Molecules are shown by their SMILES. Values after ≈ are worked out from the molar mass of the structure shown. Where a SMILES comes first, the peptide text is derived from it. Bridges are numbered along the chain shown (N, C = ends). [ ]: non-standard residue; d: D form. The star is where a group is joined. X1 = CC[C@H](C)CCCCC(=O)*; Dab = NCC[C@H](N)C(=O)O

Data on three molecules can be found in PMC7921374, “In vitro antifungal activity of pelgipeptins against human pathogenic fungi and Candida albicans biofilms” (AIMS Microbiology, 2021).

Holding throughout (assay type): cell-based
For test [1], the system named is Paracoccidioides brasiliensis Pb18. Briefly: microbe, parasite or virus in culture. As for the experimental part:
(§1) The isolated pelgipeptin isoforms were tested against the reference clinical strains of Candida albicans SC 5314 (ATCC MYA-2876), Candida glabrata ATCC 90030, Cryptococcus neoformans H99 (ATCC 208821), and Paracoccidioides brasiliensis PB18, a Brazilian clinical isolate. All the isolates were obtained from the mycology collection of the University of Brasilia (Department of Cell Biology). Before each experiment, both Candida spp. strains were grown in Sabouraud's dextrose broth (Himedia) overnight at 30 °C/200 rpm. In addition, the C. neoformans cells were grown in the same conditions for 24 h. P. brasiliensis strains were also grown in GPY medium (2% glucose w/v, 1% peptone w/v, 0.5% yeast extract w/v, and 2% agar w/v), at 37 °C, for 5 days. The fungal cells were collected by centrifugation, washed thrice in phosphate buffered saline (PBS) (NaCl, 137 mM; KCl, 2.7 mM; Na2HPO4, 10 mM; KH2PO4, 2 mM), and inoculated in RPMI 1640 medium (Thermo-Fisher Scientific) supplemented with L-glutamine and buffered to pH 7.0 with 165 mM of 3-(N-morpholino) propanesulfonic acid.
(§2) The in vitro antifungal assays were performed according to the broth microdilution susceptibility test from the Clinical and Laboratory Standards Institute M27-A4 guidelines with modifications. Briefly, the twofold serial dilutions of each pelgipeptin were prepared in 96-well polystyrene microplates to a final volume of 50 µL. Fluconazole, an antifungal employed in the treatment of mycosis caused by Candida spp, Cryptococcus spp, and Paracoccidioides spp, was used as a control (Sigma-Aldrich). We also utilized polymyxin B (Sigma-Aldrich), another bacterial lipopeptide, in our assays due to some works that show its antifungal activity,[28]. The final concentrations of each lipopeptide and control ranged from 1 to 128 µg/mL, and the negative controls without peptide were used to assess fungal growth. Subsequently, 50 µL of the inoculum adjusted on RPMI-1640 medium was added to each well to a final concentration of 2 × 10^3 cells/mL for Candida spp. and 10^4 cells/mL for C. neoformans or P. brasiliensis strains. The microplates were incubated at 37 °C for 24, 48, or 72 h. In addition, the strains of C. neoformans were incubated with shaking at 200 rpm.
(§3) The MICs of the pelgipeptins against P. brasiliensis were determined using the microplate AlamarBlue Cell Viability Assay. This assay uses a resazurin-based solution to indicate cell viability, which was evaluated by fluorometric readings in a fluorescence plate reader with excitation at 550 nm and emission at 585 nm (SpectraMax® M plate reader). The experiments were performed in triplicates at least thrice on separate dates.

Test [2] concerns Cryptococcus neoformans H99. Briefly: microbe, parasite or virus in culture. As to conditions: broth microdilution CLSI M27-A4 modified, RPMI 1640 pH 7.0, 10^4 cells/mL, 37 °C, shaking 200 rpm, lowest concentration completely inhibiting visible growth, triplicates, at least thrice. As for the experimental part: as §1, §2, §3
In another test the test system is Candida albicans SC5314. Briefly: microbe, parasite or virus in culture. The following applies: broth microdilution CLSI M27-A4 modified, RPMI 1640 pH 7.0, 2 × 10^3 cells/mL, 37 °C, complete inhibition of visible growth, triplicates, at least thrice. On the procedure: as §1, §2, §3
For orientation: Dilution methods test growth across graded concentrations, often in twofold steps.

For test [3], the system named is Candida glabrata ATCC 90030. Nature of the test: microbe, parasite or virus in culture. As to conditions: broth microdilution CLSI M27-A4 modified, RPMI 1640 pH 7.0, 2 × 10^3 cells/mL, 37 °C, complete inhibition of visible growth, triplicates, at least thrice. On the procedure:
as §1, §2, §3

The test system of test [4] is Candida albicans SC 5314 biofilms. Nature of the test: Inhibition of early-phase biofilm (XTT). As to conditions: antimicrobial added after 4 hours of yeast growth, planktonic cells removed, A490, 80% decrease, triplicate, at least twice. As for the experimental part: (§4) The effects of the pelgipeptins on C. albicans biofilms were analyzed according to the protocol described by Pierce et al.. Briefly, 2 × 10^6 cells/mL of C. albicans SC 5314 were inoculated on 96-well polystyrene microplates. The inhibition of biofilm formation was also evaluated by adding antimicrobials (lipopeptides, fluconazole, or amphotericin B) at the same time as the yeast inoculum. Furthermore, the inhibition of early-phase biofilms was assessed after 4 hours of yeast growth by removing the planktonic cells and adding the antimicrobials (lipopeptides or amphotericin B). For the investigation of the effects of peptides on mature biofilms, the Candida cells were allowed to grow for 24 h when planktonic cells were removed, and the antimicrobials were added to the culture and incubated for another 24 h at 37 °C.
(§5) The biofilm viability was analyzed by the metabolic assay on the basis of the reduction of 2,3-bis-(2-methoxy-4-nitro-5-sulfophenyl)-2H-tetrazolium-5-carboxanilide (XTT) and absorbance reading at 490 nm. […] The sessile minimal inhibitory concentrations (SMICs) were also determined at 80% (SMIC80) and 50% (SIMIC50) decrease in absorbance at 490 nm in comparison with the control biofilms growing in the absence of the drug, as previously described.

Test [5] shares this test system. Briefly: Inhibition of mature biofilms (XTT). As to conditions: biofilm grown 24 h, planktonic cells removed, antimicrobial for another 24 h at 37 °C, triplicate, at least twice. On the procedure: as §4, §5
For orientation: Tetrazolium assays rely on reduction of a dye to a coloured formazan, in cell work by metabolically active cells.

For test [6] the test system is unchanged. Briefly: Inhibition of initial biofilm formation (XTT). The following applies: antimicrobial added at same time as yeast inoculum (2 × 10^6 cells/mL), XTT reduction, A490, 80% decrease vs control biofilm, triplicate, at least twice. On the procedure: as §4, §5

`OC(Cn1cncn1)(Cn1cncn1)c1ccc(F)cc1F` [Fluconazole]: the MIC in test [1] (Paracoccidioides brasiliensis, PB18, pH 7, read-out: MIC Paracoccidioides brasiliensis Pb18) was 2 µg/mL (≈ 6.53 µM); in test [2] (Cryptococcus neoformans, H99), 2 µg/mL (≈ 6.53 µM); in the test on Candida albicans SC5314 (Candida albicans, SC5314), 16 µg/mL (≈ 52.2 µM); in test [3] (Nakaseomyces glabratus, ATCC90030), 32 µg/mL (≈ 104 µM).

For `CC[C@H](C)CCCCC(=O)N[C@@H](CCN)C(=O)N[C@H](C(=O)N[C@@H](CCN)C(=O)N[C@H]1CCNC(=O)[C@H]([C@@H](C)O)NC(=O)[C@H](CCN)NC(=O)[C@H](CCN)NC(=O)[C@H](CC(C)C)NC(=O)[C@@H](Cc2ccccc2)NC(=O)[C@H](CCN)NC1=O)[C@@H](C)O` [Polymyxin B, polymyxin B] (X1-[Dab]T[Dab][Dab][Dab][dF]L[Dab][Dab]T; lactam 4-C (inferred); N-terminus assumed), the “MIC Paracoccidioides brasiliensis Pb18” value in test [1] (broth microdilution, RPMI 1640 pH 7.0 (MOPS), 10^4 cells/mL, 37 °C, AlamarBlue fluorescence (ex 550/em 585 nm), triplicates, at least thrice) is greater than 1024 µg/mL. The “MIC Cryptococcus neoformans H99” value in test [2] came to 8 µg/mL (≈ 6.65 µM). Moreover, in the test on Candida albicans SC5314, the “MIC Candida albicans SC5314” value was found to be 256 µg/mL (≈ 213 µM). The “MIC Candida glabrata 90030” value in test [3] was 512 µg/mL (≈ 425 µM).

`C[C@@H]1[C@H](O)[C@@H](C)/C=C/C=C/C=C/C=C/C=C/C=C/C=C/[C@H](O[C@@H]2O[C@H](C)[C@@H](O)[C@H](N)[C@@H]2O)C[C@@H]2O[C@](O)(C[C@@H](O)C[C@@H](O)[C@H](O)CC[C@@H](O)C[C@@H](O)CC(=O)O[C@H]1C)C[C@H](O)[C@H]2C(=O)O` [Amphotericin B]: the “Inhibition of early-phase biofilm SMIC80” value in test [4] was less than 0.5 µg/mL; in test [4] (listed as amphotericin B) it was “lower than 0.5 µg/mL”. In addition, the “Inhibition of mature biofilms SMIC50” value in test [5] (A490, 50% decrease) is 0.5 µg/mL. For the same molecule, the “Inhibition of mature biofilms SMIC80” value in test [5] (A490, 80% decrease) is listed as 4 µg/mL. For the same molecule, the “Inhibition of initial biofilm formation SMIC80” value in test [6] is less than 0.5 µg/mL; in test [6] (listed as amphotericin B), “lower than 0.5 µg/mL”.
